Experimental data as given in patent US12004538B2, “Method for improving meat quality” (CAN TECHNOLOGIES, INC., priority 2017, dated 2024).
Where two headings read alike, the source gives them in different places.

Tests used:
[1] = for Carcass yield: HCW divided by live weight
Procedure: (§1) The trial was conducted in the grower-finisher unit 1 and 2 of Cargill Innovation Center Velddriel, The Netherlands. Pigs were allocated with 64 days of age. A randomized block design was used using 6 treatments divided over 48 pens by using 8 weight blocks in total. A pen was the experimental unit. Each pen contained 4 animals. Barrows and gilts were equally distributed among treatments. The experiment consisted of a 3×2 factorial design with three different levels of Bolifor™ CNFR (calcium nitrate) and with and without heat stress, with 8 replications per treatment (Table 1). During phase 1 (day 0 to day 24, i.e., d0-24) a common diet was fed. In phase 2 (d24-56) and phase 3 (d56-101) pigs were fed one of the 6 experimental diets (pellet form).
On day 83 of the trial one pig per pen was removed and transported to a commercial processing plant. On day 102, pigs were weighed and transported to a commercial processing plant (Compaxo, Zevenaar, The Netherlands). Each pig received an ear tag according to pen number to allow for data retrieval by pen and carcass data collection at the packing plant. Hot carcass weights (HCW) were measured immediately after evisceration and each carcass was evaluated for backfat, loin depth, and lean percentage. Fat depth and loin depth were measured with an optical probe inserted between 3rd and 4th last rib. Lean percentage was provided from the packing plant by using a proprietary equation. Percentage yield was calculated by dividing HCW by live weight obtained before transport to the packing plant.
Temperature, humidity and ventilation were automatically controlled. During phase 1 (from experimental day 0 until 24) pigs were not submitted to heat stress conditions. From experimental day 32 onwards pigs in Unit 2 were exposed to heat stress conditions (total period length of 66 days). During this period of heat stress the temperature was raised to 30° C. (from 8 AM-6 PM) and decreased to 26° C. from 6 PM-8 AM. During the heat stress period the relative humidity was kept at 80% in Unit 2 and the minimum ventilation was adjusted according to the body weight of the pigs.

[2] = system: longissimus muscle; details: for L* day 2 / a* day 2 / b* day 2 / pH* day 2: 24 hours after slaughter; for L* day 1 / a* day 1 / b* day 1: day of slaughter
Procedure: as §1
At slaughter, meat samples were taken to measure meat color. Color was evaluated at the longissimus muscle for L* (lightness), a* (redness), and b* (yellowness) values using a Minolta spectrophotometer. The first measurement was taken 3 hours postmortem and the second measurement 24 hours after first measurement. At the time of the 2nd color measurement, pH was also measured.

[3] = Procedure: as §1
Feed intake and body weight were measured at day 0, 24, 39, 59, 83 and 101. Ultrasound measurements were made at day 24, 59 and 101. To get more insight on metabolic defenses when pigs are submitted to heat stress, urine samples were taken at experimental day 84 (105 kg average BW) in the morning from the control animals (16 animals) in the heat stress group and the non-heat stressed group to measure pH, and calcium and phosphorus content. The pH was measured right after collection. During the first three weeks of heat stress skin temperature was measured daily with an infrared device (Testo 845). From 3 weeks onwards, skin temperature was measured weekly.
For comparison of the different treatments, the parameters ADG, ADFI and Feed conversion ratio (FRC) (all normally distributed) were subjected to Mixed Model analysis, using SAS JMP (Version 9.0, SAS Institute Inc., Cary, NC, 2008) according to the following statistical model: Yijk=μ+αi+βj+(αβ)ij+Sexk+δi1+BW24m+εijklm Where, • μ=population mean; • αi=main effect of temperature/room i (A), i=1, 2; • βj=main effect of calcium nitrate level j (B), j=1, 2, 3; • Sex1=random effect of sex, 1=barrow, gilt; • BW24m=BW at day 24 (covariable) • (αβ)ij is the interaction effect of A and B; for each j and for each i • δik˜Niid(0, s^2a) is the whole plot (block) error, k=1, 2, . . . , 8; • εijk˜Niid(0, s^2e) is the sub plot (pen) error, k=1, 2, . . . , 8. Linear and quadratic contrast for calcium nitrate level was tested. Differences between treatment means were assumed to be significant based on the probability of P<0.05 (Student t-test); unless other probability value is stated.

[4] = young piglets
[5] = cited from earlier work
[6] = 0.063% nitrate inclusion in feed
[7] = heat stress, nitrate 0.063% in diet
[8] = heat stress, nitrate 0.1% in diet
[9] = normal temperature, nitrate 0.063% in diet
[10] = normal temperature, nitrate 0.1% in diet
[11] = grower-finisher pigs, nitrate in the water

O=[N+]([O-])[O-].O=[N+]([O-])[O-].[Ca+2] [Nitrate, calcium nitrate]
carcass yield, rank among treatments [1, 6]: highest | slaughter weight, rank among treatments [1, 6]: lowest slaughter weight | effect of nitrate level on carcass yield ([1]; P<0.05): quadratic effect | effect of nitrate level on full weight ([1]; P<0.05): quadratic effect | effect of nitrate level on slaughter weight ([1]; P<0.05): quadratic effect | Backfat [1, 7]: 18.7 mm | Carcass weight [1, 7]: 100.2 kg | Lean meat [1, 7]: 56.1% | Muscle [1, 7]: 68.6 mm | Slaughter weight [1, 7]: 122.8 kg | Weight full [1, 7]: 125.0 kg | Carcass yield [1, 7]: 81.7% | Backfat [1, 8]: 18.9 mm | Carcass weight [1, 8]: 101.2 kg | Lean meat [1, 8]: 55.9% | Muscle [1, 8]: 68.5 mm | Slaughter weight [1, 8]: 124.9 kg | Weight full [1, 8]: 127.6 kg | Carcass yield [1, 8]: 81.2% | carcass weight compared to the other treatments ([1]; normal temperature, 0.063%): higher carcass weight | Backfat [1, 9]: 20.3 mm | Carcass weight [1, 9]: 105.1 kg | Lean meat [1, 9]: 55.0% | Muscle [1, 9]: 67.8 mm | Slaughter weight [1, 9]: 126.0 kg | Weight full [1, 9]: 128.2 kg | Carcass yield [1, 9]: 83.6% | Backfat [1, 10]: 16.8 mm | Carcass weight [1, 10]: 99.5 kg | Lean meat [1, 10]: 57.4% | Muscle [1, 10]: 69.3 mm | Slaughter weight [1, 10]: 127.3 kg | Weight full [1, 10]: 129.6 kg | Carcass yield [1, 10]: 78.3% | L* day 2 [2, 7]: 55.5 | a* day 2 [2, 7]: 9.5 | b* day 2 [2, 7]: −0.4 | pH* day 2 [2, 7]: 5.36 | L* day 2 [2, 8]: 55.1 | a* day 2 [2, 8]: 9.8 | b* day 2 [2, 8]: −0.7 | pH* day 2 [2, 8]: 5.35 | L* day 2 [2, 9]: 53.5 | a* day 2 [2, 9]: 9.8 | b* day 2 [2, 9]: −1.0 | pH* day 2 [2, 9]: 5.60 | L* day 2 [2, 10]: 53.7 | a* day 2 [2, 10]: 9.9 | b* day 2 [2, 10]: −0.9 | pH* day 2 [2, 10]: 5.58 | L* day 1 [2, 7]: 43.1 | a* day 1 [2, 7]: 7.0 | b* day 1 [2, 7]: −1.5 | L* day 1 [2, 8]: 42.5 | a* day 1 [2, 8]: 7.1 | b* day 1 [2, 8]: −1.6 | L* day 1 [2, 9]: 42.5 | a* day 1 [2, 9]: 7.3 | b* day 1 [2, 9]: −1.5 | L* day 1 [2, 10]: 43.0 | a* day 1 [2, 10]: 7.2 | b* day 1 [2, 10]: −1.4 | parameter a* at day 2 with increasing level of calcium nitrate in the diet ([2]; main effect of nitrate level, P=0.012): linearly increased | pH values in longissimus dorsi, main effect of nitrate ([2]; pig, in vivo): no significant effects | effect of calcium nitrate level on weight ([3]; day 83 and 101, P<0.05): quadratic effect | FCR ([3]; overall period (24-101 days), nitrate level 1 (0.063%), heat stress conditions, tendency P=0.09): better FCR | FCR with increasing level of calcium nitrate in the diet ([3]; phase 2 (d24-59) and whole trial (d24-101), P<0.05): linearly increased | effect of calcium nitrate level on ADG ([3]; phase 3 (d59-101), P<0.10): tended to show a quadratic effect | effect of calcium nitrate level on ADFI ([3]; phase 3 and whole trial, P<0.05): quadratic effect | effect of calcium nitrate level on ADG ([3]; whole trial (d24-101), P<0.05): quadratic effect | adverse effects on performance ([4]; feed dose titration 0.2, 0.4, 0.6, 0.8 and 1.0% calcium nitrate): no adverse effects | met-hemoglobin ([4]; highest level of calcium nitrate inclusion): stayed well within levels considered as safe | effect on hemoglobin or met-hemoglobin in the blood [5, 11]: no effect | effect on meat and liver NO content and on meat color, smell or taste [5, 11]: no effect | level of nitrate in swine feed that can be dosed safely ([5]; swine feed): ≥ 0.1%
